Data taken from patent US8821862B2, “Soluble β-N-acetylglucosaminidase based antibiofilm compositions and uses thereof” (Kane Biotech Inc., priority 2002, dated 2014).

Columns and labels:
[1] = system: biofilm-embedded S. epidermidis; experiment: In vitro biofilm killing assay after DispersinB pre-treatment; assay type: cell-based, Staphylococcus epidermidis; conditions: 37° C.
Method: An in vitro biofilm assay was performed to determine the effect of DispersinB™ pre-treatment on the susceptibility of S. epidermidis to SDS. S. epidermidis biofilm grown in tubes were pretreated with PBS or DispersinB™ (20 μg/ml) for 30 min, and then treated with SDS (0.2 mg/ml) for 5 min at 37° C. […] However, SDS caused a 1.5 log unit decrease in the number of CFUs in tubes pretreated with […] biofilm embedded cells more susceptible to SDS.
An in vitro biofilm assay was performed to determine the effect of DispersinB™ pre-treatment on the susceptibility of biofilm-embedded S. epidermidis to CHX. S. epidermidis biofilm grown in tubes were pretreated with PBS or DispersinB™ (20 μg/ml) for 30 min, and then treated with CHX (0.2 μg/ml) for 5 min at 37° C. […] However, CHX caused a 1.6 log decrease of CFU in tubes pretreated with DispersinB™. DispersinB™ pretreatment made biofilm-embedded cells more susceptible to CHX.
An in vitro biofilm assay was performed to determine the effect of DispersinB™ pre-treatment on the susceptibility of S. epidermidis to BKC. S. epidermidis biofilm grown in tubes were pretreated with PBS or DispersinB™ (20 μg/ml) for 30 min, and then treated with BKC (0.4 μg/ml) for 60 min at 37° C. […] However, BKC caused a 2.2 log decrease in CFU in tubes pretreated with DispersinB™. DispersinB™ pre-treatment made biofilm-embedded cells more susceptible to BKC.
An in vitro biofilm assay was performed to determine the effect of DispersinB™ pre-treatment on susceptibility of S. epidermidis to silver nanopowder (SNP). S. epidermidis biofilm grown in tubes were pretreated with PBS or DispersinB™ (20 μg/ml) for 30 min, and then treated with SNP (0.03125 μg/ml) for 60 min at 37° C. […] However, SNP caused a 1.5 log decrease in CFU in tubes pretreated with DispersinB™. DispersinB™ pre-treatment made biofilm embedded cells more susceptible to SNP treatment.

[2] = system: biofilm embedded S. epidermidis; experiment: 12-well microplate biofilm assay with CFU counting; assay type: cell-based, Staphylococcus epidermidis
Method: In vitro microplate assays were performed to determine the effect of DispersinB and PyrM combination on the growth of biofilm-embedded S. epidermidis. Overnight growth of S. epidermidis in tryptic soy broth (TSB) was used as inoculum. Biofilm was developed in 12-well microplate in the absence and presence of each test compound (1 μg/ml DispersinB or 8 μg/ml PyrM) separately and together (DispersinB+PyrM). The plates were incubated at 37° C. for 24 h. Medium containing planktonic cells in each well was removed gently and rinsed with sterile water. A known volume of water was added to each well and sonicated for seconds. The contents of each well was transferred into a sterile tube, vortexed for a minute, followed by 10-fold serial dilution, and plated on agar plates using a spreader. After incubating the plates at 37° C. for 24 h, colony-forming units (CFU) were counted.

[3] = system: biofilm embedded S. aureus; experiment: 12-well microplate biofilm assay with CFU counting; assay type: cell-based, Staphylococcus aureus; conditions: EGCG 100 ng/ml alone versus DispersinB alone
Method: An in vitro microplate assays were performed to determine the effects of a DispersinB™ and EGCG combination on the growth of biofilm embedded S. epidermidis and S. aureus. Overnight cultures of each bacterial strain grown in Tryptic Soy Broth (TSB) were used as inoculum. Biofilm was developed in TSB on a 12-well microplate in the absence and presence of each test compound (50 ng DispersinB™ or 100 ng/ml ECCG) separately and together (DispersinB™+EGCG). The plates were incubated at 37° C. for 24 hours. Medium containing planktonic cells in each well was removed gently and rinsed with sterile water. A known volume of water was added to each well and sonicated for 30 seconds. The contents of each well was transferred into a sterile tube, vortexed for a minute, followed by 10-fold serial dilution, and plated on agar plates using a spreader. After incubating the plates at 37° C. for 24 hours, colony forming units (CFU) were counted.

[4] = system: biofilm-embedded S. epidermidis; experiment: In vitro biofilm-dispersal assay in microcentrifuge tubes (sensitivity of biofilm-embedded cells, CFU plating); assay type: cell-based, Staphylococcus epidermidis; conditions: 3 h, 37° C.
[5] = system: E. coli csrA luxCDABE kan^r biofilm; experiment: Bioluminescent E. coli biofilm on filter disc, luminescence; assay type: cell-based; conditions: Table 4, repeated experiment
Source text: E. coli TRMG1655 [csrA::kan^r] strain was transformed with transposon, mini-TN5 luxCDABE::kan^r for luciferase expression (Kadurugamuwa et al., 2005, Infect. Immun. 73: 3878-3887), and the operon integrated into the chromosome. Integration was confirmed by amplification of the genomic DNA upstream of the transposon by inverse PCR using Ssp1-digested genomic DNA. Primers UTCF1 (5′-[…]-3′; SEQ ID NO:13) and UTCR (5′-[…]-3′; SEQ ID NO:14) were used to amplify the upstream region using Pfu DNA polymerase (Sigma-Oligosynthesis, St. Louis, Mo.). The lux operon is derived from Photorhabdus luminescence and was obtained from Xenogen Inc. (Alameda, Calif.). These bioluminescent bacteria allow real-time monitoring by noninvasive imaging of biofilms, either in vitro or in vivo.
A cell suspension of 10^6 E. coli csrA luxCDABE kan^r was used to inoculate a filter disc (Millipore Corporation, Billerica, Mass.). The E. coli biofilm was maintained in minimal media (M9) supplemented with 50 μg/ml kanamycin and 100 μg/ml ampicillin. The media were changed every day by transferring the disc to new plate. After 3 days, chemoluminescence activity of the established biofilm was measured using a Typhoon™ imaging scanner (General Electric Healthcare Life Sciences) and ImageQuant TL software (Amersham Biosciences, Sunnyvale, Calif.). The measure luminescence directly correlates with the metabolic activity of the biofilm.
Luminescence was measured at day 0 and was used as the control. Following the measurement of luminescence at day 0, each disc was treated with one of the following—media alone (control) and media containing:
Luminescence was measured every 24 hours followed by replacing the media. Thus, every 24 h following the measurement of the luminescence, 10 μl each of the different solutions was applied to the plate and the biofilm disc was placed on top of the drop everyday. The quantitative analysis of the biofilm luminescence from each day was used to compare the biofilm activity after treatment with the different treatments.
The experiments were repeated using the same E. coli strain csrA luxCDABE kan^r and protocols. Biofilm discs were pulsed with media alone (control) and media containing: […]

[6] = BisEDT 50 μg/ml, DispersinB 50 μg/ml, phage cocktail 10^8

benzalkonium chloride [BKC]
killing of biofilm-embedded S. epidermidis ([1]; BKC alone, 0.4 μg/ml, 60 min, PBS pretreatment): did not significantly kill
decrease in CFU ([1]; tubes pretreated with DispersinB 20 μg/ml 30 min, then BKC 0.4 μg/ml 60 min): 2.2 log

O=C(O[C@@H]1Cc2c(O)cc(O)cc2O[C@@H]1c1cc(O)c(O)c(O)c1)c1cc(O)c(O)c(O)c1 [EGCG, Epigallocatechin gallate]
inhibiting the growth of biofilm embedded S. epidermidis, compound alone ([2]; EGCG 100 ng/ml alone versus DispersinB alone): more effective than DispersinB™
inhibiting the growth of biofilm embedded S. aureus, compound alone [3]: more effective than DispersinB™

O=C1C=CC(=O)N1c1ccc2ccc3cccc4ccc1c2c34 [PyrM, N-(1-pyrenyl)maleimide]
inhibiting the growth of biofilm-embedded S. epidermidis, compound alone ([2]; 8 μg/ml PyrM alone versus 1 μg/ml DispersinB alone): more effective than DispersinB

OC[C@@H](O)[C@H](O)[C@@H](O)CO [xylitol]
inhibitory effect on biofilm-embedded S. epidermidis ([4]; 5% xylitol in combination with DispersinB 20 μg/ml): slightly enhanced the inhibitory effect

bismuth ethanedithiol [BisEDT]
luminescence, Day 1 [5, 6]: 245.27 RLU
luminescence, Day 2 [5, 6]: 83.51 RLU
luminescence, Day 3 [5, 6]: 8.02 RLU
luminescence, Day 4 [5, 6]: 47.62 RLU
luminescence, Day 0 ([5]; Day 0, before treatment (baseline)): 1815.26 RLU

glucose oxidase
inhibitory effect on biofilm-embedded S. epidermidis ([4]; glucose oxidase 10 U/m in combination with DispersinB 20 μg/ml): enhanced the inhibitory effect

[H]/N=C(\N/C(=N/[H])NCCCCCCNC(=N)NC(=N)Nc1ccc(Cl)cc1)Nc1ccc(Cl)cc1 [CHX, chlorhexidine]
killing of S. epidermidis biofilm ([1]; CHX alone, 0.2 μg/ml, 5 min, PBS pretreatment): did not significantly kill
decrease of CFU ([1]; tubes pretreated with DispersinB 20 μg/ml 30 min, then CHX 0.2 μg/ml 5 min): 1.6 log

O=C1C=CC(=O)N1c1ccccc1N1C(=O)C=CC1=O [oPDM, N,N-(1,2 phenylene)dimaleimide]
inhibiting the growth of biofilm-embedded S. epidermidis, compound alone ([2]; 625 μg/ml oPDM alone versus 1 μg/ml DispersinB alone): more effective than DispersinB
